# From the supplement of paper PMC10307832
# Compound: COc1cc([C@@H]2c3cc4c(cc3[C@@H](O[C@@H]3O[C@@H]5CO[C@@H](C)O[C@H]5[C@H](O)[C@H]3O)[C@H]3COC(=O)[C@H]23)OCO4)cc(OC)c1O [Etoposide] + COc1cccc2cc(-c3nc([C@H]4CC[C@H](C(=O)O)CC4)n4ncnc(N)c34)[nH]c12 [OSI-027] (partner 0.5 µM)
# Assay: relative viability (nuclei count vs DMSO), 5 days (fraction); higher = more cells survive
# Conditions: first compound 0.01 µM
# How it was run: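 Dosing by pin tool came one day after lung cancer cell lines were seeded in 1536-well plates, using either one drug or a fixed anchor-drug dose plus five library-drug doses (not always all listed) in √10 steps. After 5 days, nuclei were counted on 4× images. Relative viability is treated-well nuclei count divided by vehicle-well nuclei count, and values are medians of duplicate plates.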
row,Cell Line,relative viability
1,NCI-H1993,0.565
2,NCI-H2087,0.514
3,PC-14,0.815
4,LCLC-103H,0.515
5,NCI-H596,0.695
6,NCI-H2228,0.499
7,EMC-BAC-2,0.353
8,NCI-H2085,0.542
9,HCC-366,0.911
10,NCI-H1666,0.853
11,NCI-H647,0.579
12,LK-2,0.248
13,NCI-H2126,0.742
14,NCI-H2342,0.707
15,SK-MES-1,0.523
16,H3255,0.617
17,COR-L23,0.76
18,COR-L 105,0.756
19,ChaGo-K-1,0.487
20,NCI-H2170,0.697
21,SW 900,0.448
22,NCI-H441,0.625
23,NCI-H1395,0.625
24,NCI-H1793,0.243

# Same assay, conditions: first compound 0.03162 µM
row,Cell Line,relative viability
1,NCI-H522,0.77
2,NCI-H1623,0.497
3,NCI-H838,0.43
4,NCI-H1650,0.556
5,NCI-H1993,0.452
6,NCI-H2087,0.59
7,PC-14,0.945
8,LCLC-103H,0.516
9,NCI-H596,0.831
10,NCI-H2228,0.787
11,EMC-BAC-2,0.383
12,NCI-H2085,0.705
13,HCC-366,1.16
14,NCI-H1666,0.812
15,NCI-H647,0.627
16,LK-2,0.214
17,NCI-H2126,0.662
18,NCI-H2342,0.649
19,SK-MES-1,0.616
20,H3255,0.709
21,COR-L23,0.741
22,COR-L 105,0.851
23,ChaGo-K-1,0.689
24,NCI-H2170,0.76
25,SW 900,0.563
26,NCI-H1648,0.269
27,NCI-H441,0.638
28,NCI-H1395,0.759
29,NCI-H1793,0.325

# Same assay, conditions: first compound 0.1 µM
row,Cell Line,relative viability
1,NCI-H522,0.657
2,NCI-H1623,0.386
3,NCI-H838,0.307
4,NCI-H1650,0.41
5,NCI-H1993,0.53
6,NCI-H2087,0.364
7,PC-14,0.58
8,LCLC-103H,0.392
9,NCI-H596,0.467
10,NCI-H2228,0.276
11,EMC-BAC-2,0.294
12,NCI-H2085,0.533
13,HCC-366,0.466
14,NCI-H1666,0.678
15,NCI-H647,0.456
16,LK-2,0.185
17,NCI-H2342,0.51
18,SK-MES-1,0.544
19,H3255,0.417
20,COR-L23,0.436
21,COR-L 105,0.432
22,ChaGo-K-1,0.466
23,NCI-H2170,0.44
24,SW 900,0.367
25,NCI-H1648,0.253
26,NCI-H441,0.416
27,NCI-H1395,0.506

# Same assay, conditions: first compound 0.3162 µM
row,Cell Line,relative viability
1,NCI-H522,0.709
2,NCI-H1623,0.413
3,NCI-H838,0.403
4,NCI-H1650,0.32
5,NCI-H1993,0.508
6,NCI-H2087,0.386
7,PC-14,0.587
8,LCLC-103H,0.55
9,NCI-H596,0.56
10,NCI-H2228,0.481
11,EMC-BAC-2,0.23
12,NCI-H2085,0.676
13,HCC-366,0.374
14,NCI-H1666,0.528
15,NCI-H647,0.491
16,LK-2,0.194
17,NCI-H2126,0.706
18,NCI-H2342,0.402
19,SK-MES-1,0.437
20,H3255,0.542
21,COR-L23,0.532
22,COR-L 105,0.669
23,ChaGo-K-1,0.285
24,NCI-H2170,0.736
25,SW 900,0.333
26,NCI-H1648,0.289
27,NCI-H441,0.267
28,NCI-H1395,0.605
29,NCI-H1793,0.246

# Same assay, conditions: first compound 1 µM
row,Cell Line,relative viability
1,NCI-H522,0.71
2,NCI-H1623,0.322
3,NCI-H838,0.325
4,NCI-H1650,0.163
5,NCI-H1993,0.522
6,NCI-H2087,0.173
7,PC-14,0.275
8,LCLC-103H,0.424
9,NCI-H596,0.546
10,NCI-H2228,0.164
11,EMC-BAC-2,0.15
12,NCI-H2085,0.373
13,HCC-366,0.0799
14,NCI-H1666,0.408
15,NCI-H647,0.267
16,LK-2,0.158
17,NCI-H2126,0.506
18,NCI-H2342,0.352
19,SK-MES-1,0.189
20,H3255,0.477
21,COR-L23,0.25
22,COR-L 105,0.556
23,ChaGo-K-1,0.174
24,NCI-H2170,0.536
25,SW 900,0.129
26,NCI-H1648,0.292
27,NCI-H441,0.224
28,NCI-H1395,0.469
29,NCI-H1793,0.209
